From patent publication US20140206681A1, “BTK INHIBITORS” (priority 2013, published 2014)

Columns and labels:
[1] = biological target: T1, BTK enzyme (recombinant full-length BTK, hBTK) (Homo sapiens, UniProt Q06187); test: BTK enzyme activity assay, LANCE TR-FRET; assay type: biochemical; conditions: 50 pM hBTK, 2 μM biotin-A5-peptide, 25 μM ATP; 60 min compound & enzyme incubation; read-out: IC50 BTK activity value
T1 construct: recombinant protein from baculovirus-transfected Sf9 cells: full-length BTK, 6HIS-tag cleaved; 6HIS (cleaved yes); made in house; host or cells: baculovirus-transfected Sf9 cells
T1 sequence (Q06187 whole entry): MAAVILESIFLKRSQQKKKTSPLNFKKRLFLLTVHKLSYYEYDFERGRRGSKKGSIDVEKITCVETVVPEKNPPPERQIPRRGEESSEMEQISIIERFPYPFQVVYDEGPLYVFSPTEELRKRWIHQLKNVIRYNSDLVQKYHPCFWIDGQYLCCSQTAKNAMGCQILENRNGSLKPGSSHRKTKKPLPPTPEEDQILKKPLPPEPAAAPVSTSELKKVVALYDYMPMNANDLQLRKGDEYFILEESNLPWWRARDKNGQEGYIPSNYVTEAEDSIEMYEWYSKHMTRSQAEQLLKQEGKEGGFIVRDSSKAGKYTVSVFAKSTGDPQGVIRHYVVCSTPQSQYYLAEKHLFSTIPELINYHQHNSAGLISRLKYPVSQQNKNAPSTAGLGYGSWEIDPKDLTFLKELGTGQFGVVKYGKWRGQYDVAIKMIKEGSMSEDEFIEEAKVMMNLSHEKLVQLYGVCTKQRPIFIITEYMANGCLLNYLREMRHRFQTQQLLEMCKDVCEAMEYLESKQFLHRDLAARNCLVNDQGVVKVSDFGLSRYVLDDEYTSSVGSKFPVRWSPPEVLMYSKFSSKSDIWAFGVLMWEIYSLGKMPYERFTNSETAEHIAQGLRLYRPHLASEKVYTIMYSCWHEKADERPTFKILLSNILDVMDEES

HeLa cells = test: [3H]Adenosine uptake functional cellular assay; assay type: cell-based; conditions: Homo sapiens, HeLa, accumulation of [3H]adenosine into HeLa cells; compound range 10 μM to […]; read-out: Adenosine uptake inhibition IC50
In short: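 Inhibition of adenosine uptake was measured in HeLa cells (ATCC CCL-2) by following accumulation of tritiated adenosine. Cells were kept overnight at 37° C. with 5% (v/v) CO2, then switched to 40 μL HBSS plus 5% (v/v) FBS. 20 μL of 500 nM [3H]adenosine was added, and uptake was counted on a Topcount NXT reader.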

| SMILES | IC50 [1] [nM] | IC50 (HeLa cells) [nM] |
| --- | --- | --- |
| N#C/N=C1\CC[C@@H]2CC[C@@H](c3nc(-c4ccc(C(=O)Nc5cc(C(F)(F)F)ccn5)cc4)c4c(N)nccn34)CN12 [Example 78, 4-(8-amino-3-((6R,8aS,E)-3-(cyanoimino)octahydroindolizin-6-yl)imidazo[1,5-a]pyrazin-1-yl)-N-(4-(trifluoromethyl)pyridin-2-yl)benzamide] | 0.46 | 132 |
| COC(=O)Nc1nccn2c([C@@H]3CC[C@H]4CCC(=O)N4C3)nc(-c3ccc(C(=O)Nc4cc(C(F)(F)F)ccn4)cc3)c12 [Example 79, methyl (3-((6R,8aS)-3-oxooctahydroindolizin-6-yl)-1-(4-((4-(trifluoromethyl)pyridin-2-yl)carbamoyl)phenyl)imidazo[1,5-a]pyrazin-8-yl)carbamate] | 7.3 | 295 |
| CCN1CC(=O)N2C[C@H](c3nc(-c4ccc(C(=O)Nc5cc(C(F)(F)F)ccn5)cc4)c4c(N)nccn34)CC[C@H]2C1 [Example 80, 4-(8-amino-3-((7R,9aS)-2-ethyl-4-oxooctahydro-1H-pyrido[1,2-a]pyrazin-7-yl)imidazo[1,5-a]pyrazin-1-yl)-N-(4-(trifluoromethyl)pyridin-2-yl)benzamide] | 0.27 | 82.5 |
| CC(C)N1CC(=O)N2C[C@H](c3nc(-c4ccc(C(=O)Nc5cc(C(F)(F)F)ccn5)cc4)c4c(N)nccn34)CC[C@H]2C1 [Example 81] | 0.29 | 68.6 |
| COC(=O)CN1CC(=O)N2C[C@H](c3nc(-c4ccc(C(=O)Nc5cc(C(F)(F)F)ccn5)cc4)c4c(N)nccn34)CC[C@H]2C1 [Example 82] | 0.19 | 78.1 |
| Nc1nccn2c([C@@H]3CC[C@H]4CCCN4C3)nc(-c3ccc(C(=O)Nc4cc(C(F)(F)F)ccn4)cc3)c12 [Example 87, 4-(8-amino-3-((6R,8aS)-octahydroindolizin-6-yl)imidazo[1,5-a]pyrazin-1-yl)-N-(4-(trifluoromethyl)pyridin-2-yl)benzamide] | 0.67 | 75.5 |
| COc1cc(C(=O)Nc2cc(C(F)(F)F)ccn2)ccc1-c1nc([C@@H]2CC[C@H]3[C@@H](C)OC(=O)N3C2)n2ccnc(N)c12 [Example 89, 4-(8-amino-3-((1R,6R,8aS)-1-methyl-3-oxohexahydro-1H-oxazolo[3,4-a]pyridin-6-yl)imidazo[1,5-a]pyrazin-1-yl)-3-methoxy-N-(4-(trifluoromethyl)pyridin-2-yl)benzamide] | 0.13 | 490 |
| COc1cc(C(=O)Nc2cc(C(F)(F)F)ccn2)ccc1-c1nc([C@@H]2CC[C@@H]3N(C2)C(=O)OC3(C)C)n2ccnc(N)c12 [Example 90, 4-(8-amino-3-((6R,8aS)-1,1-dimethyl-3-oxohexahydro-1H-oxazolo[3,4-a]pyridin-6-yl)imidazo[1,5-a]pyrazin-1-yl)-3-methoxy-N-(4-(trifluoromethyl)pyridin-2-yl)benzamide] | 0.18 | 373 |
| COc1cc(C(=O)Nc2cc(C(F)(F)F)ccn2)ccc1-c1nc([C@H]2CN3C(=O)CC[C@@H]3CO2)n2ccnc(N)c12 [Example 91, 4-(8-amino-3-((3R,8aR)-6-oxohexahydro-1H-pyrrolo[2,1-c][1,4]oxazin-3-yl)imidazo[1,5-a]pyrazin-1-yl)-3-methoxy-N-(4-(trifluoromethyl)pyridin-2-yl)benzamide] | 0.52 | 639 |
| Nc1nccn2c([C@@H]3CC[C@H]4CCOC(=O)N4C3)nc(-c3ccc(C(=O)Nc4cc(C(F)(F)F)ccn4)cc3)c12 [Example 92, 4-{8-amino-3-[(4aS,7R)-1-oxohexahydro-3H-pyrido[1,2-c][1,3]oxazin-7-yl]imidazo[1,5-a]pyrazin-1-yl}-N-[4-(trifluoromethyl)pyridin-2-yl]benzamide] | 0.075 | 64.6 |
| Nc1nccn2c([C@H]3CC[C@@H]4CCOC(=O)N4C3)nc(-c3ccc(C(=O)Nc4cc(C(F)(F)F)ccn4)cc3)c12 [Example 93, 4-{8-amino-3-[(4aR,7S)-1-oxohexahydro-3H-pyrido[1,2-c][1,3]oxazin-7-yl]imidazo[1,5-a]pyrazin-1-yl}-N-[4-(trifluoromethyl)pyridin-2-yl]benzamide] | 2.6 | 158 |
| CC1(C)C[C@H]2CC[C@H](c3nc(-c4ccc(C(=O)Nc5cc(C(F)(F)F)ccn5)cc4)c4c(N)nccn34)CN2C1=O [Example 94, 4-{8-amino-3-[(6S,8aR)-2,2-dimethyl-3-oxooctahydroindolizin-6-yl]imidazo[1,5-a]pyrazin-1-yl}-N-[4-(trifluoromethyl)pyridin-2-yl]benzamide] | 0.14 | 63.2 |
| C[C@@H]1OC(=N)N2C[C@H](c3nc(-c4ccc(C(=O)Nc5cc(C(F)(F)F)ccn5)cc4)c4c(N)nccn34)CC[C@@H]12 [Example 96, 4-{8-amino-3-[(1S,6R,8aS)-3-imino-1-methylhexahydro[1,3]oxazolo[3,4-a]pyridin-6-yl]imidazo[1,5-a]pyrazin-1-yl}-N-[4-(trifluoromethyl)pyridin-2-yl]benzamide] | 1.3 | 1140 |
| CC(O)c1ccnc(NC(=O)c2ccc(-c3nc([C@@H]4CC[C@H]5CCC(=O)N5C4)n4ccnc(N)c34)cc2)c1 (stereo partly drawn) [Example 97, 4-{8-amino-3-[(6R,8aS)-3-oxooctahydroindolizin-6-yl]imidazo[1,5-a]pyrazin-1-yl}-N-[4-(1-hydroxyethyl)pyridin-2-yl]benzamide] | 9.7 | 5380 |
| CC(C)(O)c1ccnc(NC(=O)c2ccc(-c3nc([C@@H]4CC[C@H]5CCC(=O)N5C4)n4ccnc(N)c34)cc2)c1 [Example 98, 4-{8-amino-3-[(6R,8aS)-3-oxooctahydroindolizin-6-yl]imidazo[1,5-a]pyrazin-1-yl}-N-[4-(1-hydroxy-1-methylethyl)pyridin-2-yl]benzamide] | 49.3 | 6320 |
| COC(C)c1ccnc(NC(=O)c2ccc(-c3nc([C@@H]4CC[C@H]5CCC(=O)N5C4)n4ccnc(N)c34)cc2)c1 (stereo partly drawn) [Example 99, 4-{8-amino-3-[(6R,8aS)-3-oxooctahydroindolizin-6-yl]imidazo[1,5-a]pyrazin-1-yl}-N-[4-(1-methoxyethyl)pyridin-2-yl]benzamide] | 1.5 | 184 |
| COc1cc(C(=O)Nc2cc(C(F)(F)F)ccn2)ccc1-c1nc([C@@H]2CC[C@H]3CC(C)(C)C(=O)N3C2)n2ccnc(N)c12 [Example 100, 4-{8-amino-3-[(6R,8aS)-2,2-dimethyl-3-oxooctahydroindolizin-6-yl]imidazo[1,5-a]pyrazin-1-yl}-3-methoxy-N-[4-(trifluoromethyl)pyridin-2-yl]benzamide] | 0.51 | 463 |
| COc1cc(C(=O)Nc2cc(C(F)(F)F)ccn2)ccc1-c1nc([C@H]2CC[C@@H]3CC(C)(C)C(=O)N3C2)n2ccnc(N)c12 [Example 101, 4-{8-amino-3-[(6S,8aR)-2,2-dimethyl-3-oxooctahydroindolizin-6-yl]imidazo[1,5-a]pyrazin-1-yl}-3-methoxy-N-[4-(trifluoromethyl)pyridin-2-yl]benzamide] | 45.4 | 487 |
| Nc1nccn2c([C@@H]3CC[C@H]4CN(C(=O)c5ccncc5)CC(=O)N4C3)nc(-c3ccc(C(=O)Nc4cc(C(F)(F)F)ccn4)cc3)c12 [Example 102, 4-{8-amino-3-[(7R,9aS)-4-oxo-2-(pyridin-4-ylcarbonyl)octahydro-2H-pyrido[1,2-a]pyrazin-7-yl]imidazo[1,5-a]pyrazin-1-yl}-N-[4-(trifluoromethyl)pyridin-2-yl]benzamide] | 0.21 | 471 |
| COC(=O)c1ccnc(NC(=O)c2ccc(-c3nc([C@@H]4CC[C@H]5CCC(=O)N5C4)n4ccnc(N)c34)cc2)c1 [Example 103, methyl 2-{[(4-{8-amino-3-[(6R,8aS)-3-oxooctahydroindolizin-6-yl]imidazo[1,5-a]pyrazin-1-yl}phenyl)carbonyl]amino}pyridine-4-carboxylate] | 0.4 | 69.3 |
| Nc1nccn2c([C@@H]3CC[C@H]4CCC(=O)N4C3)nc(-c3ccc(C(=O)Nc4cc(C(F)(F)F)cnn4)cc3)c12 [Example 104, 4-{8-amino-3-[(6R,8aS)-3-oxooctahydroindolizin-6-yl]imidazo[1,5-a]pyrazin-1-yl}-N-[5-(trifluoromethyl)pyridazin-3-yl]benzamide] | 1.2 | 303 |
| Nc1nccn2c([C@@H]3CC[C@H]4CCC(=O)N4C3)nc(-c3ccc(C(=O)Nc4cc5ccccc5cn4)cc3)c12 [Example 106, 4-{8-amino-3-[(6R,8aS)-3-oxooctahydroindolizin-6-yl]imidazo[1,5-a]pyrazin-1-yl}-N-isoquinolin-3-ylbenzamide] | 0.19 | 193 |
| Nc1nccn2c([C@H]3CN4C(=O)CC[C@@H]4CO3)nc(-c3ccc(C(=O)Nc4cc(C(F)(F)F)ccn4)cc3)c12 [Example 107, 4-{8-amino-3-[(3R,8aR)-6-oxohexahydro-1H-pyrrolo[2,1-c][1,4]oxazin-3-yl]imidazo[1,5-a]pyrazin-1-yl}-N-[4-(trifluoromethyl)pyridin-2-yl]benzamide] | 0.26 | 206 |
| Nc1nccn2c([C@@H]3CC[C@H]4CN(CC(=O)O)CC(=O)N4C3)nc(-c3ccc(C(=O)Nc4cc(C(F)(F)F)ccn4)cc3)c12 [Example 108, {(7R,9aS)-7-[8-amino-1-(4-{[4-(trifluoromethyl)pyridin-2-yl]carbamoyl}phenyl)imidazo[1,5-a]pyrazin-3-yl]-4-oxooctahydro-2H-pyrido[1,2-a]pyrazin-2-yl}acetic acid] | 0.22 | 2880 |
